Source: US8952163B2, “Substituted hydroxamic acids and uses thereof” (Millennium Pharmaceuticals, Inc., priority 2010, dated 2015)

Biological target: T1, purified human HDAC6 (Homo sapiens, UniProt Q9UBN7)
T1 construct: purchased BPS Bioscience 5006
T1 sequence (Q9UBN7 1-1215): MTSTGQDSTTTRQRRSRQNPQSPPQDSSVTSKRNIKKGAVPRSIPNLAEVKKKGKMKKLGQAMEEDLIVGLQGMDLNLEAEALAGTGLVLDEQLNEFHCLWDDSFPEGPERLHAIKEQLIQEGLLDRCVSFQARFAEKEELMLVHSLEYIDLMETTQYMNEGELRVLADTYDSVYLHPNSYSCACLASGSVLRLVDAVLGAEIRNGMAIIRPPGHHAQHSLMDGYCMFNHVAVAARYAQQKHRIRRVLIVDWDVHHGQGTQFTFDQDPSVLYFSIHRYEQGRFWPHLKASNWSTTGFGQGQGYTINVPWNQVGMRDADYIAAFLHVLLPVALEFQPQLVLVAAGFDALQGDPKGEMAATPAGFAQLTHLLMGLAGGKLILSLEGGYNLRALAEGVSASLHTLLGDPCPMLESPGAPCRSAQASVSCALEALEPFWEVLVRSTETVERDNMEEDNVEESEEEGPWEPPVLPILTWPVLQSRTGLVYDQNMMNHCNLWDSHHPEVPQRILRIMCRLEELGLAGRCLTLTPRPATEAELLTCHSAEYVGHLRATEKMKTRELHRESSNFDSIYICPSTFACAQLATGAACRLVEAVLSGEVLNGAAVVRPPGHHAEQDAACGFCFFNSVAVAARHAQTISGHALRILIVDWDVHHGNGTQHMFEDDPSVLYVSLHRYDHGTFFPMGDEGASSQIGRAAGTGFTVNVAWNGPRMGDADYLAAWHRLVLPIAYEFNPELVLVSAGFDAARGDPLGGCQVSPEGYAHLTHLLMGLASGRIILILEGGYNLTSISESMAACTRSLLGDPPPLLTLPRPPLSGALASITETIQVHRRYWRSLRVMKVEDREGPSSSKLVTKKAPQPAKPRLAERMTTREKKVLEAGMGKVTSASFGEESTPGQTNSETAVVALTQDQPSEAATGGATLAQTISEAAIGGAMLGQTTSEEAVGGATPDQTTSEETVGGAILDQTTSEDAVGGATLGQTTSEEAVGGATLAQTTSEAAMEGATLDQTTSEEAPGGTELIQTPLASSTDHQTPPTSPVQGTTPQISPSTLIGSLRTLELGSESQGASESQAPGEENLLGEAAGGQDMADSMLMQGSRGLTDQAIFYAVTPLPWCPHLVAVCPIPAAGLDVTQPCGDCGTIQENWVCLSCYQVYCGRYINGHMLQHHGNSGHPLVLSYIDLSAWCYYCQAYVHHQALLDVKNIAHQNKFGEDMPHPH
Experiment: HDAC6 Enzyme Assay
Type: biochemical
Settings: test compound at 1.235 μM; substrate Ac-Arg-Gly-Lys(Ac)-AMC, 1 hour at 30° C.; read-out: Percent Inhibition at 1.235 μM
Method: To measure the inhibition of HDAC6 activity, purified human HDAC6 (BPS Bioscience; Cat. No. 5006) is incubated with substrate Ac-Arg-Gly-Lys(Ac)-AMC peptide (Bachem Biosciences; Cat. No. I-1925) for 1 hour at 30° C. in the presence of test compounds or vehicle DMSO control. The reaction is stopped with the HDAC inhibitor trichostatin A (Sigma; Cat. No. T8552) and the amount of Arg-Gly-Lys-AMC generated is quantitated by digestion with trypsin (Sigma; Cat. No. T1426) and subsequent measurement of the amount of AMC released using a fluorescent plate reader (Pherastar, BMG Technologies) set at Ex 340 nm and Em 460 nm. Concentration response curves are generated by calculating the fluorescence increase in test compound-treated samples relative to DMSO-treated controls, and percentage inhibition values at a single concentration or enzyme inhibition (IC50) values are determined from those curves. One skilled in the art will appreciate that the values generated either as percentage inhibition at a single concentration or IC50 values are subject to experimental variation.

Compound | inhibition at 1.235 µM [%]
Cc1nc(C(=O)N2CCc3ncc(C(=O)NO)cc3C2)cs1 [Compound I-1, N-hydroxy-6-[(2-methyl-1,3-thiazol-4-yl)carbonyl]-5,6,7,8-tetrahydro-1,6-naphthyridine-3-carboxamide] | 87.8
CC(=O)N1CCc2nc(C(=O)NO)ccc2C1 [Compound I-2, 6-acetyl-N-hydroxy-5,6,7,8-tetrahydro-1,6-naphthyridine-2-carboxamide] | 34.1
CC(C)(C)OC(=O)N1CCc2cc(C(=O)NO)cnc2C1 [Compound I-3, tert-butyl 3-[(hydroxyamino)carbonyl]-5,8-dihydro-1,7-naphthyridine-7(6H)-carboxylate] | 95.3
O=C(NO)c1cnc2c(c1)CCN(C(=O)c1cc3ccccc3s1)C2 [Compound I-4, 7-(1-benzothien-2-ylcarbonyl)-N-hydroxy-5,6,7,8-tetrahydro-1,7-naphthyridine-3-carboxamide] | 97.2
O=C(NO)c1cnc2c(c1)CN(C(=O)c1sc3ccccc3c1Cl)CC2 [Compound I-5, 6-[(3-chloro-1-benzothien-2-yl)carbonyl]-N-hydroxy-5,6,7,8-tetrahydro-1,6-naphthyridine-3-carboxamide] | 93.4
Cc1nc(-c2ccccn2)sc1C(=O)N1CCc2nc(C(=O)NO)ccc2C1 [Compound I-6, N-hydroxy-6-[(4-methyl-2-pyridin-2-yl-1,3-thiazol-5-yl)carbonyl]-5,6,7,8-tetrahydro-1,6-naphthyridine-2-carboxamide] | 81.4
O=C(NO)c1ccc2c(n1)CCN(C(=O)c1[nH]c3ccccc3c1-c1ccccc1)C2 [Compound I-7, N-hydroxy-6-[(3-phenyl-1H-indol-2-yl)carbonyl]-5,6,7,8-tetrahydro-1,6-naphthyridine-2-carboxamide] | 79
Cc1ccccc1NC(=O)N1CCc2nc(C(=O)NO)ccc2C1 [Compound I-8, N^2-hydroxy-N^6-(2-methylphenyl)-7,8-dihydro-1,6-naphthyridine-2,6(5H)-dicarboxamide] | 40.4
CC1(C(=O)N2CCc3cc(C(=O)NO)cnc3C2)CCCCC1 [Compound I-9, N-hydroxy-7-[(1-methylcyclohexyl)carbonyl]-5,6,7,8-tetrahydro-1,7-naphthyridine-3-carboxamide] | 95.2
Cc1nc(C(=O)N2CCc3cc(C(=O)NO)cnc3C2)cs1 [Compound I-10, N-hydroxy-7-[(2-methyl-1,3-thiazol-4-yl)carbonyl]-5,6,7,8-tetrahydro-1,7-naphthyridine-3-carboxamide] | 84.6
Cn1cccc1C(=O)N1CCc2nc(C(=O)NO)ccc2C1 [Compound I-11, N-hydroxy-6-[(1-methyl-1H-pyrrol-2-yl)carbonyl]-5,6,7,8-tetrahydro-1,6-naphthyridine-2-carboxamide] | 73.9
O=C(NO)c1cnc2c(c1)CN(C(=O)c1ccc(Cl)cc1)CC2 [Compound I-12, 6-(4-chlorobenzoyl)-N-hydroxy-5,6,7,8-tetrahydro-1,6-naphthyridine-3-carboxamide] | 94.5
O=C(NO)c1ccc2c(n1)CCN(C(=O)NC13CC4CC(CC(C4)C1)C3)C2 [Compound I-13, N^6-[1-adamantyl]-N^2-hydroxy-7,8-dihydro-1,6-naphthyridine-2,6(5H)-dicarboxamide] | 70.6
O=C(NO)c1ccc2c(n1)CCN(C(=O)c1cc3ccccc3o1)C2 [Compound I-14, 6-(1-benzofuran-2-ylcarbonyl)-N-hydroxy-5,6,7,8-tetrahydro-1,6-naphthyridine-2-carboxamide] | 89.9
O=C(NO)c1cnc2c(c1)CCN(C(=O)C13CC4CC(CC(C4)C1)C3)C2 [Compound I-15, 7-[1-adamantylcarbonyl]-N-hydroxy-5,6,7,8-tetrahydro-1,7-naphthyridine-3-carboxamide] | 95.6
CCC(C)NC(=O)N1CCc2nc(C(=O)NO)ccc2C1 (centres unmarked) [Compound I-16, N^6-(sec-butyl)-N^2-hydroxy-7,8-dihydro-1,6-naphthyridine-2,6(5H)-dicarboxamide] | 27.3
O=C(NO)c1ccc2c(n1)CCN(C(=O)NC1CCCCC1)C2 [Compound I-17, N^6-cyclohexyl-N^2-hydroxy-7,8-dihydro-1,6-naphthyridine-2,6(5H)-dicarboxamide] | 41.2
O=C(NO)c1cnc2c(c1)CCN(C(=O)c1cc3ccccc3o1)C2 [Compound I-18, 7-(1-benzofuran-2-ylcarbonyl)-N-hydroxy-5,6,7,8-tetrahydro-1,7-naphthyridine-3-carboxamide] | 97.2
O=C(NO)c1cnc2c(c1)CN(Cc1ccccc1)CC2 [Compound I-20, 6-benzyl-N-hydroxy-5,6,7,8-tetrahydro-1,6-naphthyridine-3-carboxamide] | 58.6

Continued, values first:

inhibition at 1.235 µM [%] | Compound
79.5 | CC1(C(=O)N2CCc3nc(C(=O)NO)ccc3C2)CCCCC1 [Compound I-19, N-hydroxy-6-[(1-methylcyclohexyl)carbonyl]-5,6,7,8-tetrahydro-1,6-naphthyridine-2-carboxamide]
73.9 | CC(=O)N1CCc2cc(C(=O)NO)cnc2C1 [Compound I-21, 7-acetyl-N-hydroxy-5,6,7,8-tetrahydro-1,7-naphthyridine-3-carboxamide]
90.2 | O=C(NO)c1ccc2c(n1)CCN(C(=O)C13CC4CC(CC(C4)C1)C3)C2 [Compound I-22, 6-[1-adamantylcarbonyl]-N-hydroxy-5,6,7,8-tetrahydro-1,6-naphthyridine-2-carboxamide]
92 | Cc1nc(-c2ccccn2)sc1C(=O)N1CCc2ncc(C(=O)NO)cc2C1 [Compound I-23, N-hydroxy-6-[(4-methyl-2-pyridin-2-yl-1,3-thiazol-5-yl)carbonyl]-5,6,7,8-tetrahydro-1,6-naphthyridine-3-carboxamide]
92.3 | Cn1cccc1C(=O)N1CCc2cc(C(=O)NO)cnc2C1 [Compound I-24, N-hydroxy-7-[(1-methyl-1H-pyrrol-2-yl)carbonyl]-5,6,7,8-tetrahydro-1,7-naphthyridine-3-carboxamide]
60.4 | O=C(NO)c1ccc2c(n1)CCN(C(=O)NCc1ccccc1)C2 [Compound I-25, N^6-benzyl-N^2-hydroxy-7,8-dihydro-1,6-naphthyridine-2,6(5H)-dicarboxamide]
94 | O=C(NO)c1cnc2c(c1)CCN(C(=O)C13CC4CC(CC(O)(C4)C1)C3)C2 [Compound I-26, N-hydroxy-7-[(3-hydroxy-1-adamantyl)carbonyl]-5,6,7,8-tetrahydro-1,7-naphthyridine-3-carboxamide]
51.2 | Cc1nc(C(=O)N2CCc3nc(C(=O)NO)ccc3C2)cs1 [Compound I-27, N-hydroxy-6-[(2-methyl-1,3-thiazol-4-yl)carbonyl]-5,6,7,8-tetrahydro-1,6-naphthyridine-2-carboxamide]
91.9 | O=C(NO)c1cnc2c(c1)CCN(C(=O)c1ccc(Cl)cc1)C2 [Compound I-28, 7-(4-chlorobenzoyl)-N-hydroxy-5,6,7,8-tetrahydro-1,7-naphthyridine-3-carboxamide]
97.8 | O=C(NO)c1cnc2c(c1)CN(C(=O)c1[nH]c3ccccc3c1-c1ccccc1)CC2 [Compound I-29, N-hydroxy-6-[(3-phenyl-1H-indol-2-yl)carbonyl]-5,6,7,8-tetrahydro-1,6-naphthyridine-3-carboxamide]
